From US11072634B2, “Inhibitors of transglutaminases” (Zedira GmbH, priority 2016, dated 2021)
Like-named read-outs stand apart in the source and are kept apart here. *1 amine or outer side, *2 acyl side, *3 side chain or, on linkers, in order; H or OH if unused. Where a SMILES comes first, the peptide text is derived from it. [ ]: non-standard residue; d: D form. The star is where a group is joined. Nle(5,6-dioxo,6-NHMe) = CNC(=O)C(=O)CC[C@H](N)C(=O)O; X2 = CC(C)(C)NC(=O)C(=O)CC[C@H](N[*:1])C(=O)[*:2]; X4 = O=C(CC[C@H](N[*:1])C(=O)[*:2])C(=O)NC1CC1; Isonicotinoyl(3-COOH) = O=C(O)c1cnccc1C(=O)*; Pro(4-oxo) = O=C1CN[C@H](C(=O)O)C1; Chg = N[C@H](C(=O)O)C1CCCCC1; Tle = CC(C)(C)[C@H](N)C(=O)O; Nle = CCCC[C@H](N)C(=O)O

Legend:
Type in all cases: biochemical
[1] = target: T1, recombinant human factor XIII A-subunit (rhFXIII-A, plasma transglutaminase) (Homo sapiens, UniProt P00488); assay: Inhibition of rec. human coagulation factor XIII (fluorescence, Abz-NE(CAD-DNP)EQVSPLILLK-OH); conditions: read-out: IC50 FXIII
T1 construct: His6; purchased Zedira 1027 (so in the source); T027)
T1 sequence (P00488 39-732 limits assumed): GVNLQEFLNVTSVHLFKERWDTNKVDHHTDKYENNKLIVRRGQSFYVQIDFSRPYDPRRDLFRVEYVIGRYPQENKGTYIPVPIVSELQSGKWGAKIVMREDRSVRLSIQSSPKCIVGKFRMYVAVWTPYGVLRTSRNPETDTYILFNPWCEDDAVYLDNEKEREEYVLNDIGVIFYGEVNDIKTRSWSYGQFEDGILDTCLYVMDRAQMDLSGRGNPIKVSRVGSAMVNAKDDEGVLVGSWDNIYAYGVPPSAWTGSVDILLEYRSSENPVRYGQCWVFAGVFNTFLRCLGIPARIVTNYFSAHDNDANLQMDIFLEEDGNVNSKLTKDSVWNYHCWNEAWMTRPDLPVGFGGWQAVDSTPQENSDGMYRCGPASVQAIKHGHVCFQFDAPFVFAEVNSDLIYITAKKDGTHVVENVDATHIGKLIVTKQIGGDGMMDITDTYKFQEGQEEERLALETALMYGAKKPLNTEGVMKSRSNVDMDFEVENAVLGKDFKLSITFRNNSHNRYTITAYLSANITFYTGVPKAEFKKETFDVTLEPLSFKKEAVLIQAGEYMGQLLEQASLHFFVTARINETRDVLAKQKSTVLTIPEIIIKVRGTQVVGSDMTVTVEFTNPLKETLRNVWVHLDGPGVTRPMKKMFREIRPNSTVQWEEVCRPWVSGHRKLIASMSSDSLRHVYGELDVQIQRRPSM
Procedure: Method for Inhibition Studies of Rec. Human Coagulation Factor XIII (Plasma Transglutaminase, rhFXIII-A)
(§1) 50 μg lyophilized His-tagged recombinant human factor XIII A-subunit (His6-rhFXIII, Zedira product 1027) is reconstituted in H2O (volume depends on original volume before lyophilization) resulting in a buffer containing 20 mM Tris-HCl, 150 mM NaCl, 1 mM EDTA, 1 mM DTT, 189 mg/ml maltodextrin, pH=7.5. The rhFXIII stock solution is diluted in buffer (50 mM Tris-HCl, 7.5 mM CaCl2, 150 mM NaCl, pH=7.4) to give a working solution of 59 U/ml (based on the amine-incorporation activity measured using transglutaminase activity assay #1036 (Zedira GmbH), described below).
(§2) A 10 mM inhibitor stock solution is prepared in DMSO, and from this a serial 1:2-fold dilution series is prepared also in DMSO. Each of the initial dilutions is subsequently diluted 1:50-fold with buffer (50 mM Tris-HCl, 7.5 mM CaCl2, 150 mM NaCl, pH=7.4) to yield the final working dilutions containing 2% (v/v) DMSO.
(§3) 15 μl of inhibitor working dilution are added per well of a 96 well microtiter plate. As control, 15 μl of a 2% (v/v) DMSO solution prepared using the buffer mentioned above are added per well.
(§4) 480 μl of His6-rhFXIII working solution and 120 μl human alpha thrombin (0.5 NIH units/μl) are added to 10.8 ml assay buffer (50 mM Tris-HCl, 7.5 mM CaCl2, 150 mM NaCl, 5 mM DTT, 13.4 mM glycine methylester, 50 μM Abz-NE(CAD-DNP)EQVSPLILLK-OH, (Zedira product A101; patent No.: EP 1781807B1), pH=7.4). From this master-mix solution, 285 μl are added per well containing the inhibitor. Increase in fluorescence is measured using […] and λem=418 nm at 37° C. for 35 min. A slope of the increase in fluorescence between 20 and 30 min is calculated for determination of the IC50 value (inhibitor concentration at which 50% of the initial FXIII activity is blocked).
(§5) Analysis of enzymatic activity is performed by calculation of the slope of an increase in fluorescence intensity. IC50 values are calculated by plotting the enzymatic activity (as percentage from control containing 2% DMSO instead of inhibitor) against the inhibitor concentration. IC50 is defined as the inhibitor concentration blocking 50%) of initial enzyme activity.

[2] = target: T2, TG2 (Homo sapiens, UniProt P21980); assay: FXIII assay format using TG2 instead of FXIII (selectivity of FXIIIa blockers); conditions: Table 3, selectivity with respect to TG2; read-out: IC50 TG2
T2 sequence (P21980 1-687): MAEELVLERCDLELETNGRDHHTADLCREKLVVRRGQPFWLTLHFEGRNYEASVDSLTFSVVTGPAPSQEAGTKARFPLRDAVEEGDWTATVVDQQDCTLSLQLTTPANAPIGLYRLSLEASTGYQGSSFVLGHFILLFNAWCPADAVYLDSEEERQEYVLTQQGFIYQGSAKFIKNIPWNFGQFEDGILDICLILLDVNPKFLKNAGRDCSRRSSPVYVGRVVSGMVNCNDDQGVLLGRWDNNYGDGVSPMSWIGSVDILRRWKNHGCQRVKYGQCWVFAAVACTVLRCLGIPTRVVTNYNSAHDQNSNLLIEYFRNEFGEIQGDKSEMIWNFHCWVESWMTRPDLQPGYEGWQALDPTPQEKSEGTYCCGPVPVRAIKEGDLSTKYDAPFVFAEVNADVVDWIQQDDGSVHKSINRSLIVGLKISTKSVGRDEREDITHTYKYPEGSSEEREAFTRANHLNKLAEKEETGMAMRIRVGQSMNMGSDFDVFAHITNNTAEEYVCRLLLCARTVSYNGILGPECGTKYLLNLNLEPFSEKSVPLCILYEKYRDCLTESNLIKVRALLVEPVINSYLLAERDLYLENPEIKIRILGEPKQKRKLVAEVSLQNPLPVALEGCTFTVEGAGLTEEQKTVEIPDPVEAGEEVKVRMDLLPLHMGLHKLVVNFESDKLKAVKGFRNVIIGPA
Procedure: as §1, §2, §3, §4
This assay was also used to determine selectivity of inhibitors preferentially blocking FXIIIa by using TG2 instead of FXIII.
as §5

[3] = target: T3, recombinant human tissue transglutaminase (rhTG2) (Homo sapiens, UniProt P21980); assay: Inhibition of rec. human tissue transglutaminase (fluorescence, Abz-APE(CAD-DNP)QEA-OH); conditions: Table 1, TG2 inhibitors
T3 construct: purchased Zedira 1022 (so in the source); T022)
T3 sequence (P21980 1-687): T2 sequence (P21980 1-687)
Procedure, shortened: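 His6-rhTG2 in a master mix (50 mM Tris-HCl pH 7.4, 7.5 mM CaCl2, 150 mM NaCl, 5 mM DTT, 13.4 mM glycine methylester, 50 μM Abz-APE(CAD-DNP)QEA-OH) was added to serially diluted inhibitor. Fluorescence (ex 313/em 418 nm) was followed at 37 °C for 20 min. IC50 came from the 10–20 min slope relative to the 2% DMSO control.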

[4] = Table 1, selectivity with respect to FXIII

SMILES: CCCC[C@H](NC(=O)[C@H](CCC(=O)C(=O)NC)NC(=O)CNC(=O)[C@@H]1CCCN1C(C)=O)C(=O)N[C@H](C(=O)N[C@@H](CC(C)C)C(=O)N1CCC[C@H]1C(=O)N[C@@H](Cc1c[nH]c2ccccc12)C(N)=O)[C@@H](C)CC [Compound E35, (S)-2-(2-((S)-1-acetylpyrrolidine-2-carboxamido)acetamido)-N1-((S)-1-((2S,3S)-1-((S)-1-((S)-2-((S)-1-amino-3-(1H-indol-3-yl)-1-oxopropan-2-ylcarbamoyl)pyrrolidin-1-yl)-4-methyl-1-oxopentan-2-ylamino)-3-methyl-1-oxopentan-2-ylamino)-1-oxohexan-2-yl)-N6-methyl-5-oxohexanediamide] (Ac-PG[Nle(5,6-dioxo,6-NHMe)][Nle]ILPW-NH2)
- IC50 ([1]; Table 3, FXIII inhibitors): 1950 nM
- IC50 [2]: 525 nM

SMILES: CCCC[C@H](NC(=O)[C@H](CCC(=O)C(=O)NC)NC(=O)CNC(C)=O)C(=O)N[C@H](C(=O)N[C@@H](CC(C)C)C(=O)N1CCC[C@H]1C(=O)N[C@@H](Cc1c[nH]c2ccccc12)C(N)=O)[C@@H](C)CC [Compound E34, (S)-2-(2-acetamidoacetamido)-N1-((S)-1-((2S,3S)-1-((S)-1-((S)-2-((S)-1-amino-3-(1H-indol-3-yl)-1-oxopropan-2-ylcarbamoyl)pyrrolidin-1-yl)-4-methyl-1-oxopentan-2-ylamino)-3-methyl-1-oxopentan-2-ylamino)-1-oxohexan-2-yl)-N6-methyl-5-oxohexanediamide] (Ac-G[Nle(5,6-dioxo,6-NHMe)][Nle]ILPW-NH2)
- IC50 ([1]; Table 3, FXIII inhibitors): 2450 nM
- IC50 [2]: 200 nM

SMILES: CC(C)(C)NC(=O)C(=O)CC[C@H](NC(=O)c1ccncc1C(=O)O)C(=O)N[C@H](C(=O)N1CC(=O)C[C@H]1C(=O)N[C@H](C(=O)N[C@H](C(N)=O)C1CCCCC1)C1CCCCC1)C(C)(C)C [Compound E30, 4-((S)-1-((S)-1-((S)-2-((S)-2-((S)-2-amino-1-cyclohexyl-2-oxoethylamino)-1-cyclohexyl-2-oxoethylcarbamoyl)-4-oxopyrrolidin-1-yl)-3,3-dimethyl-1-oxobutan-2-ylamino)-6-(tert-butylamino)-1,5,6-trioxohexan-2-ylcarbamoyl)nicotinic acid] ({Isonicotinoyl(3-COOH)}-[X2][Tle][Pro(4-oxo)][Chg][Chg]-NH2)
- IC50 ([1]; Table 3, FXIII inhibitors): 2900 nM
- IC50 [2]: > 20000 nM

SMILES: Cc1nc(Br)sc1C(=O)N[C@@H](CCC(=O)C(N)=O)C(=O)Nc1cccn(CC(=O)NCCC(C)C)c1=O [Compound E05, (S)-2-(2-bromo-4-methylthiazole-5-carboxamido)-N1-(1-(2-(isopentylamino)-2-oxoethyl)-2-oxo-1,2-dihydropyridin-3-yl)-5-oxohexanediamide]
- IC50 [3]: 150 nM
- IC50 [1, 4]: > 100000 nM

SMILES: CCC(CC)CNC(=O)Cn1cccc(NC(=O)[C@H](CCC(=O)C(N)=O)NC(=O)c2cncn2C)c1=O [Compound E04, (S)—N1-(1-(2-(2-ethylbutylamino)-2-oxoethyl)-2-oxo-1,2-dihydropyridin-3-yl)-2-(1-methyl-1H-imidazole-5-carboxamido)-5-oxohexanediamide]
- IC50 [3]: 100 nM
- IC50 [1, 4]: > 100000 nM

SMILES: CC(C)(C)[C@H](NC(=O)[C@H](CCC(=O)C(=O)NC1CC1)NC(=O)c1ccncc1C(=O)O)C(=O)N1CC(=O)C[C@H]1C(=O)N[C@H](C(=O)N[C@H](C(N)=O)C1CCCCC1)C1CCCCC1 [Compound E28, 4-((S)-1-((S)-1-((S)-2-((S)-2-((S)-2-amino-1-cyclohexyl-2-oxoethylamino)-1-cyclo-hexyl-2-oxoethylcarbamoyl)-4-oxopyrrolidin-1-yl)-3,3-dimethyl-1-oxobutan-2-yl-amino)-6-(cyclopropylamino)-1,5,6-trioxohexan-2-ylcarbamoyl)nicotinic acid] ({Isonicotinoyl(3-COOH)}-[X4][Tle][Pro(4-oxo)][Chg][Chg]-NH2)
- IC50 ([1]; Table 3, FXIII inhibitors): 275 nM

SMILES: COC(=O)[C@H](CC(C)C)NC(=O)[C@@H]1CCCN1C(=O)[C@@H](NC(=O)[C@H](CCC(=O)C(N)=O)NC(C)=O)C(C)C [Compound E01, (S)-methyl 2-((S)-1-((S)-2-((S)-2-acetamido-6-amino-5,6-dioxohexanamido)-3-methylbutanoyl)pyrrolidine-2-carboxamido)-4-methylpentanoate]
- IC50 [3]: 600 nM
- IC50 [1, 4]: > 100000 nM

SMILES: CC[C@@H](C)[C@H](NC(=O)[C@H](CCC(N)=O)NC(=O)[C@H](CCC(=O)C(N)=O)NC(C)=O)C(=O)N[C@H](C(N)=O)C(C)C [Compound E03, (S)-2-acetamido-N1-((S)-5-amino-1-((2S,3R)-1-((S)-1-amino-3-methyl-1-oxobutan-2-ylamino)-3-methyl-1-oxopentan-2-ylamino)-1,5-dioxopentan-2-yl)-5-oxohexanediamide]
- IC50 [3]: 750 nM
- IC50 [1, 4]: > 100000 nM

SMILES: CCC(CC)CNC(=O)Cn1cccc(NC(=O)[C@H](CCC(=O)C(=O)NC)NC(=O)c2cncn2C)c1=O [Compound E16, (S)—N1-(1-(2-(2-ethylbutylamino)-2-oxoethyl)-2-oxo-1,2-dihydropyridin-3-yl)-N6-methyl-2-(1-methyl-1H-imidazole-5-carboxamido)-5-oxonexanediamide]
- IC50 [3]: 50 nM
- IC50 [1, 4]: > 100000 nM
